Legend:
[1] = biological target: T1, steroid sulfatase (Homo sapiens, UniProt P08842); conditions: background statement; cited from earlier work
T1 sequence (P08842 22-583): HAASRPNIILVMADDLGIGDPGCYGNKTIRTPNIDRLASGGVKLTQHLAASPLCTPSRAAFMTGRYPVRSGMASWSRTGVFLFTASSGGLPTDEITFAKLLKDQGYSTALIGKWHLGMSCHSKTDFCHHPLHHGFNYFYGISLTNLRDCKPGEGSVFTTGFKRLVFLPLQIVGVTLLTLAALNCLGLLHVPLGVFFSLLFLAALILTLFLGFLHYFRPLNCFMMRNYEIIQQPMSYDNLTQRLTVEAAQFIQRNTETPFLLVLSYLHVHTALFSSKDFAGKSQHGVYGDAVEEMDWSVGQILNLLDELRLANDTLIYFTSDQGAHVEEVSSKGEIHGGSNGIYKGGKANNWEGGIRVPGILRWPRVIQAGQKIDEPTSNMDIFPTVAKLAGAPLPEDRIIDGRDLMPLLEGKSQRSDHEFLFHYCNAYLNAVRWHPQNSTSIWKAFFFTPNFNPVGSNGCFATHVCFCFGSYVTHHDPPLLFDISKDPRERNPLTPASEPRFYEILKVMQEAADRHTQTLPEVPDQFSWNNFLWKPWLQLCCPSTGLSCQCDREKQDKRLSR

[2] = background statement; cited from earlier work
[3] = biological target: T2, steroid sulfatase (Rattus norvegicus, UniProt P15589); test: Steroid sulfatase inhibitory activity (in vivo), liver and uterus of ovariectomized rats after oral dosing; conditions: 0.5 mg/kg p.o. once a day for seven days, ovariectomized female SD rats
T2 construct: The livers and uteri were separately minced with scissors and suspended in cooled PBS containing 250 mM sucrose; from tissue; host or cells: liver and uterus of ovariectomized female SD rats (2,000 x g supernatant of homogenate)
T2 sequence (P15589 20-577): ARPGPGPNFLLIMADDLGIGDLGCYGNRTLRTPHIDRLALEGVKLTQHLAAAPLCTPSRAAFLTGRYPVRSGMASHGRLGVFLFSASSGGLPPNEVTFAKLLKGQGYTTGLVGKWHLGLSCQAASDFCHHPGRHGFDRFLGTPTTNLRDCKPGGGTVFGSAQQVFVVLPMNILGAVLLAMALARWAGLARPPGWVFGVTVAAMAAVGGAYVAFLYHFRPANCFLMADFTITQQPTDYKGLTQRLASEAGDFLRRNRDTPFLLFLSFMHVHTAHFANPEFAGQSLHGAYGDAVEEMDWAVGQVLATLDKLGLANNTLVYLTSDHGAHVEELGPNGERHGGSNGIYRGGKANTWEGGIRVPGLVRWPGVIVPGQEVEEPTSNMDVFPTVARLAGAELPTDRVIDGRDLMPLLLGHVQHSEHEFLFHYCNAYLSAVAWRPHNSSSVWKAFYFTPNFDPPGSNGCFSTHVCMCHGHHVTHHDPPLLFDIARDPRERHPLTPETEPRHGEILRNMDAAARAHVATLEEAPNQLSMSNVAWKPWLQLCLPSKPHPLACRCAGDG
Description: (2) Measurement of Steroid Sulfatase Inhibitory Activity (in vivo):
To six/group of female SD rats which had undergone ovariectomy, the test compounds as each suspended in 0.5% polyoxyethylene (20) sorbitan monooleate (Tween 80) were orally administered once a day for seven days. On the next day of the last administration, the rats were sacrificed under ether anesthesia. The bodies were anatomized and their livers and uteri were extracted, which were washed with cooled PBS and stored below −70° C. The livers and uteri were separately minced with scissors and suspended in cooled PBS containing 250 mM sucrose. Each of the suspensions was homogenized with a homogenizer under cooling with ice, from which neclei and cell debris were eliminated by centrifugation at 2,000×g for 20 minutes (4° C.). Protein concentration of each of the supernatant was measured by Bradford's method (Anal. Biochem., 72, 248-254 (1976)).
To 2-200 μg of the supernatant protein mass and 50 μL of 60 μM estrone-3-sulfate containing about 100 nCi of [6,7-^3H]estrone-3-sulfate (purchased from Perkin Elmer Life Sciences, Boston, Mass., U.S.A.; specific activity, 40-60 Ci/mmol), PBS was added to make the total amount 150 μL, followed by incubation at 37° C. for 30 minutes. After the incubation, the amount of hydrolyzed [6,7-^3H]estrone-3-sulfate was calculated by a method similar to the in vitro measurement in (1) above. Also steroid sulfatase activity per mg of the protein was calculated, and from the amount of the hydrolyzed [6,7-^3H]estrone-3-sulfate and the calculated steroid sulfatase activity per mg of the protein, the tested compound's steroid sulfatase inhibitory rate was determined.

[4] = tested on: MCF-7 cells; test: MCF-7 cell proliferation measurement (MTT) for examining estrogenic activity; assay type: cell-based, human; conditions: 4 days, 570 nm
Description: (3) MCF-7 Cell Proliferation Measurement for Examining Estrogenic Activity:
Stimulation of MCF-7 cell proliferation induced by estrogenic activity of each test compound was measured.
MCF-7 cells were cultured in 10% fetal bovine serum (FBS)-containing RPMI 1640 medium which was free from Phenol Red, using a 75 cm^2 culture flask. Then the medium was changed to RPMI 1640 medium containing 10% of FBS from which emdogenous steroid had been eliminated by charcoal treatment but containing no Phenol Red. Renewing the medium every two days, the culture was continued for 4 days. By this step estrogen was removed from the MCF-7 cells.
The MCF-7 cells were seeded on 96-well plates, 2,000 cells per well, and cultured for 24 hours to immobilize the cells on the plate. After the cell immobilization, the medium in each well was changed to RPMI 1640 medium containing 10^−6M test compound and 10% of charcoal-treated FBS but containing no Phenol Red, and the culture was continued for further 4 days, during which the medium was changed every day to one newly prepared before the use. Also control wells to which no test compound was added were provided.
After the end of the culture, the cell proliferation was measured by MTT (3-(4,5-dimethylthiazol-2-yl)-2,5-diphenyl-2H-tetrazolium bromide; Sigma-Aldrich Japan Co.) method. That is, an MTT solution as dissolved in PBS at a concentration of 5 mg/mL was added to the 96-well plate accommodating the cells, at a rate of 10 μL/well, followed by 2 hours' incubation at 37° C. After the end of the incubation, the medium was removed and the formazan which was taken into the cells and changed was dissolved with 100 μL of dimethylsulfoxide. Absorbance of the formazan was measured at wavelength 570 nm, using a microplate reader, subtracting the 630 nm background.
As shown by the Table 3, absorbance values of the wells to which the test compounds were added were invariably less than 150% of the absorbance of the control well, and it was confirmed that the test compounds were free of estrogenic activity.

[5] = biological target: T1, steroid sulfatase; test: Steroid sulfatase inhibitory activity (in vitro), microsomal fraction of MCF-7 cells, [3H]estrone-3-sulfate hydrolysis; assay type: biochemical; design: microsomal fraction of MCF-7 human breast cancer cells was used; endogenous in cells; host or cells: MCF-7 human breast cancer cells (microsomal fraction); conditions: MCF-7 microsomal fraction, 37° C., 30 minutes; for Inhibitory rate (%) (10^−6 M): 10^−6 M test compound; for Inhibitory rate (%) (10^−7 M): 10^−7 M test compound
Description: (1) Measurement of Steroid Sulfatase Inhibitory Activity (in vitro):
As the source of steroid sulfatase enzyme, microsomal fraction of MCF-7 human breast cancer cells was used.
To phosphate buffered saline (PBS), one of the test compounds, the microsomal fraction and 50 μL of 60 μM estrone-3-sulfate containing about 100 nCi of [6,7-^3H]estrone-3-sulfate (purchased from Perkin Elmer Life Sciences, Boston, Mass., USA; specific activity, 40-60 Ci/mmol) were added to make the total amount of the reaction system 150 μL, which was incubated at 37° C. for 30 minutes. After the incubation, 50 μL of PBS containing about 2 nCi of [4-^14C] estrone (purchased from Perkin Elmer Life Sciences, Boston, Mass., USA; specific activity 45-60 mCi/mmol) was added and stirred. Further 800 μL of toluene was added, and the whole system was thoroughly shaken for 30 seconds, followed by centrifugation at 2,000×g for 10 minutes to separate the acqueous phase from the organic phase. A part (400 μL) of the organic phase was taken and measured of its ^3H and ^14C contents with scintillation spectrometer.
The mass of hydrolyzed [6,7-^3H]estrone-3-sulfate was calculated from the count number of the obtained ^3H (as corrected regarding the amount of the used organic phase and the recovered amount of [4-^14C]estrone) and the specific activity of the substrate ([6,7-^3H]estrone-3-sulfate) to determine the steroid sulfatase inhibitory rate of each test compound.

Row | Compound | steroid sulfatase inhibiting activity [1] | estrogenic activity [2] | Inhibitiory rate (0.5 mg/kg, p.o., %) Liver [3] | Inhibitiory rate (0.5 mg/kg, p.o., %) Uterus [3] | Absorbance relative to that of the control well (10^−6 M, %) [4] | Inhibitory rate (%) (10^−6 M) [5] | Inhibitory rate (%) (10^−7 M) [5]
1 | Cc1cc(=O)oc2cc(OS(N)(=O)=O)ccc12 [COUMATE, 4-methylcoumarin-7-sulfamate] | low level of steroid sulfatase inhibiting activity | free from estrogenic activity | – | – | – | – | –
2 | CCCCCCCCCCCCCC(=O)NCCc1ccc(OS(N)(=O)=O)cc1 [DU-14, 4-(2-myristoylaminoethyl)phenyl sulfamate] | low level of steroid sulfatase inhibiting activity | free from estrogenic activity | – | – | – | – | –
3 | C[C@]12CC[C@@H]3c4ccc(OS(N)(=O)=O)cc4CC[C@H]3[C@@H]1CCC2=O [EMATE, estrone-3-sulfamate] | potent steroid sulfatase inhibiting activity | potent estrogenic activity | – | – | – | – | –
4 | NS(=O)(=O)Oc1ccc(N2CCN(CCc3ccc(Cl)cc3)CC2)cc1F [Example 22, 4-[4-[2-(4-chlorophenyl)ethyl]piperazin-1-yl]-2-fluorophenyl-O-sulfamate] | – | – | 99.85% | 99.98% | 74.6% | 97.3% | 85.0%
5 | NS(=O)(=O)Oc1cc(F)c(N2CCC(CCCc3ccccc3)CC2)cc1F [Example 37, 2,5-difluoro-4-[4-(3-phenylpropyl)piperidino]phenyl-O-sulfamate] | – | – | 99.85% | 99.95% | 89.5% | 98.9% | 93.6%
6 | NS(=O)(=O)Oc1cc(F)c(N2CCN(CCc3ccccc3)CC2)cc1F [Example 43, 2,5-difluoro-4-(4-phenethylpiperazin-1-yl)phenyl-O-sulfamate] | – | – | 99.90% | 99.98% | 101.1% | 98.5% | 87.0%
7 | NS(=O)(=O)Oc1cc(F)c(N2CCN(CCCC3CCCCC3)CC2)cc1F [Example 45, 4-[4-(3-cyclohexylpropyl)piperazin-1-yl]-2,5-difluorophenyl-O-sulfamate] | – | – | 99.09% | 99.32% | 91.4% | 98.5% | 88.6%
8 | CC(C)(C)c1ccc(C(=O)CCCN2CCN(c3cc(F)c(OS(N)(=O)=O)cc3F)CC2)cc1 [Example 48, 4-[4-[4-(4-tert-butylphenyl)-4-oxobutyl]piperazin-1-yl]-2,5-difluorophenyl-O-sulfamate] | – | – | – | – | 112.0% | 100.0% | 95.9%
9 | CCCCCCCCS(=O)(=O)N1CCN(c2cc(F)c(OS(N)(=O)=O)cc2F)CC1 [Example 52, 2,5-difluoro-4-[4-(octylsulfonyl)piperazin-1-yl]phenyl-O-sulfamate] | – | – | – | – | 112.0% | 100.0% | 99.3%
10 | NS(=O)(=O)Oc1cc(F)c(N2CCN(S(=O)(=O)c3ccc(Cl)cc3)CC2)cc1F [Example 55, 4-[4-(4-chlorophenylsulfonyl)piperazin-1-yl]-2,5-difluorophenyl-O-sulfamate] | – | – | – | – | 64.6% | 100.0% | 97.5%
11 | NS(=O)(=O)Oc1cc(F)c(N2CCN(S(=O)(=O)Cc3ccc(Cl)cc3)CC2)cc1F [Example 56, 4-[(4-chlorobenzylsulfonyl)piperazin-1-yl]-2,5-difluorophenyl-O-sulfamate] | – | – | 99.37% | 99.81% | – | 99.9% | 98.4%
12 | NS(=O)(=O)Oc1cc(F)c(N2CCC(CCCc3ccccc3)CC2)cc1F.O=S(=O)(O)c1ccccc1 [Example 59, 2,5-difluoro-4-[4-(3-phenylpropyl)piperidino]phenyl-O-sulfamate benzenesulfonate] | – | – | 100.00% | 100.00% | 105.3% | 99.0% | 95.4%
